{"source": "patent US20240058387A1", "about": "“CULTURE MEDIUM COMPOSITION FOR AMPLIFYING AND MAINTAINING SELF-RENEWAL CAPACITY AND DIFFERENTIATION POTENTIAL OF HSCS AND APPLICATION THEREOF” (EDIGENE (GUANGZHOU) INC., priority 2020, published 2024)", "test_system": "mobilized peripheral blood-derived CD34+ cells", "assay": "Cell counting: absolute number of marker-positive cells, comparison with UM171 and SR1", "format": "cell-based, human", "conditions": "FIG. 5B; 8 days; AG1296 at 1 μM; UM171 concentration not given", "method": "According to the solubility and required solvent indicated in the instructions of the small molecule inhibitor (see Table 1 for the Cat. number of the small molecule inhibitor), the preparation of the small molecule inhibitor stock solution was carried out. Next, the hematopoietic stem cell medium was prepared: SFEM II medium (stem cell, Cat. number: 09655)+50 ng/ml growth factor Flt-3L (PeProtech, Cat. number: 300-100UG)+50 ng/ml growth factor SCF (PeProtech, Cat. number): 300-07-100UG)+50 ng/ml growth factor TPO (PeProtech, Cat. number: 300-18-100UG)+10 ng/ml interleukin IL-6 (PeProtech, Cat. number: 200-06-20UG)+1% bispecific antibody (HyClone, Cat. No.: sv30010). According to the set concentration gradient of the small molecule inhibitor, the stock solution and the basal medium were used to prepare the medium containing different concentrations of the small molecule inhibitor.\nFirst, the prepared medium was added to a 24-well plate (Corning, Cat. number: 3473), 950 μl per well, and placing it in a carbon dioxide incubator (Thermo, model: 3111) to preheat; resuspending the spare umbilical cord Blood-derived HSCs of Example 1 with SFEM 11+50 ng/ml Flt-3L+50 ng/ml SCF+50 ng/ml TPO+10 ng/ml IL-6+1% bispecific antibody, calculating the medium volume to be added according to 50 μl cell suspension per well and 2*10^5/m1 cell density per well. For example, when the final volume of the cell culture solution per well was 1 ml, the total number of cells per well was 2*10^5 cells calculated according to the cell density per well, and the density of the […] of cell suspension supplemented to each well is 4*10^6/ml. The density of the spare HSCs of Example 1 was adjusted to the calculated density of the cell suspension, and adding it; taking out the preheated medium from the incubator, adding 50 μl of the cell suspension to each well, and after mixing, using the microscope (OLYMPUS, model: CKX53) to observe the cells state, and then putting it into an incubator for culturing.\nOn the mobilized peripheral blood-derived CD34+ cells sorted in Example 1, the screened-out inhibitor AG1296 and literature-reported (Fares I, et al. Science. 2014; Boitano A E, et al. Science. 2010) inhibitors UM171 and SR1 were compared in the same way as Example 2. Eight days after the induction of the small molecule inhibitor, the expression of LT-HSCs cell surface markers (CD34+CD45+CD90+CD45RA−CD38−) was detected by flow cytometry using the same method as in Example 3. After 8 days of culture, 20 μL of cell suspension was taken into a cell counter (Nexcelom, model: Cellometer K2) and counted, and the absolute numbers of the final CD34+ cells and LT-HSCs on […] were calculated (absolute number of cells=total number of cells*stemness ratio).", "data": [{"compound": "Cn1nnc(-c2ccc3c(c2)[nH]c2nc(Cc4ccccc4)nc(NC4CCC(N)CC4)c23)n1", "note": "(stereo not shown) [UM171]", "values": [{"measurement": "absolute number of CD34+ cells", "result": "best effect"}]}]}
